From patent US8912121B2, “Herbicidal compositions comprising 4-amino-3-chloro-5-fluoro-6-(4-chloro-2-fluoro-3-methoxyphenyl)pyridine-2-carboxylic acid or a derivative thereof and certain PS II inhibitors” (Dow Agrosciences LLC, priority 2012, dated 2014)

Tested on: XANST (Xanthium strumarium, common cocklebur)
Experiment: Pre-emergence soil-applied mixtures, greenhouse
Type: in vivo, Xanthium strumarium L.
Conditions: for Visual Weed Control (%) Obs: 32 DAA
From the text: Seeds or nutlets of the desired test plant species were planted in a soil matrix prepared by mixing a loam soil (32 percent silt, 23 percent clay, and 45 percent sand, with a pH of about 6.5 and an organic matter content of about 1.9 percent) and calcareous grit in an 80 to 20 ratio. The soil matrix was contained in plastic pots with a volume of 1 quart and a surface area of 83.6 square centimeters (cm^2).
Treatments consisted of the benzyl ester of 4-amino-3-chloro-5-fluoro-6-(4-chloro-2-fluoro-3-methoxy-phenyl)pyridine-2-carboxylic acid (compound A) formulated as an SC (suspension concentrate) and various herbicidal components alone and in combination. Forms of compound A were applied on an acid equivalent basis.
Other herbicidal components were applied on an acid equivalent or active ingredient basis and included the PSII-inhibiting herbicides, atrazine formulated as Atrazine® 90WDG, metribuzin formulated as Metribuzin 75DF, simazine formulated as Princep Caliber 90, tebuthiuron formulated as Spike 80DF, cyanazine (technical grade material), hexazinone (technical grade material), linuron (technical grade material), terbuthylazine (technical grade material), and diuron formulated as Diuron 4L.
Treatment requirements were calculated based upon the rates being tested, the concentration of active ingredient or acid equivalent in the formulation, and a 12 mL application volume at a rate of 187 L/ha.
For treatments comprised of formulated compounds, measured amounts of compounds were placed individually in 25 mL glass vials and diluted in a volume of 1.25% (v/v) Agri-Dex® crop oil concentrate (COC) to obtain 12× stock solutions. […] Application solutions were prepared by adding an appropriate amount of each stock solution (e.g., 1 mL) and diluted to the appropriate final concentrations with the addition of 10 mL of an aqueous mixture of 1.25% (v/v) COC so that the final spray solutions contained 1.25% (v/v) COC.
For treatments comprised of technical compounds, weighed amounts can be placed individually in 25 mL glass vials and dissolved in a volume of 97:3 (v/v) acetone/DMSO to obtain 12× stock solutions. […] Application solutions can be prepared by adding an appropriate amount of each stock solution (e.g., 1 mL) and diluted to the appropriate final concentrations with the addition of 10 mL of an aqueous mixture of 1.5% (v/v) COC so that the final spray solutions contain 1.25% (v/v) COC. When technical materials are used, the concentrated stock solutions can be added to the spray solutions so that the final acetone and DMSO concentrations of the application solutions are 16.2% and 0.5%, respectively.
For treatments comprised of formulated and technical compounds, weighed amounts of the technical materials can be placed individually in 25 mL glass vials and dissolved in a volume of 97:3 (v/v) acetone/DMSO to obtain 12× stock solutions, and measured amounts of the formulated compounds can be placed individually in 25 mL glass vials and diluted in a volume of 1.5% (v/v) COC or water to obtain 12× stock solutions. […] Application solutions can be prepared by adding an appropriate amount of each stock solution (e.g., 1 mL) and diluted to the appropriate final concentrations with the addition of an appropriate amount of an aqueous mixture of 1.5% (v/v) COC so that the final spray solutions contain 1.25% (v/v) COC. As required, additional water and/or 97:3 (v/v) acetone/DMSO can be added to individual application solutions so that the final acetone and DMSO concentrations of the application solutions being compared are 8.1% and 0.25%, respectively.
All stock solutions and applications solutions were visually inspected for compound compatibility prior to application. Spray solutions were applied to the soil with an overhead Mandel track sprayer equipped with a 8002E nozzles calibrated to deliver 187 L/ha over an application area of 0.503 m^2 at a spray height of 18 inches (46 cm) above average pot height. […]

[1] = Compound A Benzyl Ester 16 g ae/ha
[2] = Compound A Benzyl Ester 32 g ae/ha

CCNc1nc(Cl)nc(NC(C)C)n1 [Atrazine, 6-chloro-N-ethyl-N′-(1-methylethyl)-1,3,5-triazine-2,4-diamine, reference compound]
Visual Weed Control (%) Obs (560 g ai/ha): 68% | Visual Weed Control (%) Obs (1120 g ai/ha): 40%

COc1c(Cl)ccc(-c2nc(C(=O)OCc3ccccc3)c(Cl)c(N)c2F)c1F [Compound A Benzyl Ester, benzyl ester of 4-amino-3-chloro-5-fluoro-6-(4-chloro-2-fluoro-3-methoxy-phenyl)pyridine-2-carboxylic acid]
Visual Weed Control (%) Obs (8 g ae/ha): 33% | Visual Weed Control (%) Obs (16 g ae/ha): 35% | Visual Weed Control (%) Obs (32 g ae/ha): 65% | Visual Weed Control (%) - 27 DAA XANST Obs [1]: 10% | Visual Weed Control (%) - 29 DAA XANST Obs [1]: 0% | Visual Weed Control (%) - 33 DAA XANST Obs [1]: 38% | Visual Weed Control (%) - 27 DAA XANST Obs [2]: 25% | Visual Weed Control (%) - 29 DAA XANST Obs [2]: 5% | Visual Weed Control (%) - 33 DAA XANST Obs [2]: 35%

CCNc1nc(Cl)nc(NCC)n1 [Simazine, 6-chloro-N,N′-diethyl-1,3,5-triazine-2,4-diamine, reference compound]
Visual Weed Control (%) - 33 DAA XANST Obs (Simazine 1120 g ai/ha): 70% | Visual Weed Control (%) - 33 DAA XANST Obs (Simazine 2240 g ai/ha): 92%
